In patent US7098227B2, “Disubstituted thiazolyl carboxanilides and their use as microbicides” (Bayer Cropscience AG, priority 2002, dated 2006):

Key:
[1] = logP determination by HPLC on reverse-phase column (C 18), EEC Directive 79/831 Annex V.A8; assay type: physicochemical; details: 43° C.; for chromatographic logP: reverse-phase HPLC column (C 18), pH 2.3, pH 2.3, 0.1% aqueous phosphoric acid/acetonitrile gradient
Procedure: The logP values given in the tables and Preparation Examples above are determined in accordance with EEC Directive 79/831 Annex V.A8 by HPLC (High Performance Liquid Chromatography) on a reverse-phase column (C 18). Temperature: 43° C. The determination is carried out in the acidic range at pH 2.3 using the mobile phases 0.1% aqueous phosphoric acid and acetonitrile; linear gradient from 10% acetonitrile to 90% acetonitrile. Calibration is carried out using unbranched alkan-2-ones (of 3 to 16 carbon atoms), with known logP values (determination of the logP values by the retention times using linear interpolation between two successive […]).

Rhizoctonia solani = test: In vitro Test for the ED50 Determination in Microorganisms; assay type: cell-based; details: 50% inhibition of fungal growth, tested at 0.1, 1, 10 and 100 ppm, 22° C., 3–5 days, photometric 620 nm
Procedure: (§1) In vitro Test for the ED50 Determination in Microorganisms A methanolic solution of the active compound to be tested, mixed with the emulsifier PS16, is pipetted into the wells of microtitre plates. After the solvent has evaporated, 200 μl of potato/dextrose medium are added to each well. Beforehand, a suitable concentration of spores or mycelium of the fungus to be tested was added to the medium. The resulting concentrations of the active compound are 0.1, 1, 10 and 100 ppm. The resulting concentration of the emulsifier is 300 ppm. The plates are then incubated on a shaker at a temperature of 22° C. for 3–5 days, until sufficient growth can be observed in the untreated control. Evaluation is carried out photometrically at a wavelength of 620 nm. The dose of active compound which causes a 50% inhibition of fungal growths compared to the untreated control (ED50), is calculated from the data measured at different concentrations.

Septoria tritici = test: as above; assay type: cell-based; details: 50% inhibition of fungal growth, tested at 0.1, 1, 10 and 100 ppm, 22° C., 3–5 days, photometric 620 nm
Procedure: as §1

Venturia inaequalis = test: Venturia Test (Apple)/Protective; assay type: in vivo; details: 240 h, application rate 10 g/ha, protective spray, evaluation 10 days after inoculation, 100% = no infection, read-out: % Efficacy
Procedure: Venturia Test (Apple)/Protective [table] To produce a suitable preparation of active compound, 1 part by weight of active compound is mixed with the stated amounts of solvent and the emulsifier, and the concentrate is diluted with water to the desired concentration. To test for protective activity, young plants are sprayed with the preparation of active compound at the stated application rate. After the spray coating has dried on, the plants are inoculated with an aqueous conidia suspension of the apple scab pathogen Venturia inaequalis and then remain in an incubation cabin at about 20° C. and 100% relative atmospheric humidity for 1 day. The plants are then placed in a greenhouse at about 21° C. and a relative atmospheric humidity of about 90%. Evaluation is carried out 10 days after the inoculation. 0% means an efficacy which corresponds to that of the control, whereas an efficacy of 100% means that no infection is observed.

Botrytis cinerea = test: Botrytis Test (Bean)/Protective; assay type: in vivo; details: 48 h, application rate 100 g/ha, protective spray, evaluation 2 days after inoculation, 100% = no infection, read-out: % Efficacy
Procedure: Botrytis Test (Bean)/Protective [table] To produce a suitable preparation of active compound, 1 part by weight of active compound is mixed with the stated amounts of solvent and emulsifier, and the concentrate is diluted with water to the desired concentration. To test for protective activity, young plants are sprayed with the preparation of active compound at the stated application rate. After the spray coating has dried on, 2 small pieces of agar colonised by Botrytis cinerea are placed onto each leaf. The inoculated plants are then placed in a dark chamber at about 20° C. and 100% relative atmospheric humidity. 2 days after the inoculation, the size of the infected areas on the leaves is evaluated. 0% means an efficacy which corresponds to that of the control, whereas an efficacy of 100% means that no infection is observed.

Sphaerotheca fuliginea = test: Sphaerotheca Test (Cucumber)/Protective; assay type: in vivo; details: Podosphaera fuliginea, 168 h, application rate 10 g/ha, protective spray, evaluation 7 days after inoculation, 100% = no infection, read-out: % Efficacy
Procedure: Sphaerotheca Test (Cucumber)/Protective [table] To produce a suitable preparation of active compound, 1 part by weight of active compound is mixed with the stated amounts of solvent and emulsifier, and the concentrate is diluted with water to the desired concentration. To test for protective effectivity, the young plants are sprayed with the preparation of active compound at the stated application rate. After the spray coating has dried on, the plants are inoculated with an aqueous spore suspension of Sphaerotheca fuliginea. The plants are then placed in a greenhouse at about 23° C. and a relative atmospheric humidity of about 70%. Evaluation is carried out 7 days after the inoculation. 0% means an efficacy which corresponds to that of the control, whereas an efficacy of 100% means that no infection is observed.

SMILES	chromatographic logP [1]	melting point [°C]	logP ([1]; pH 2.3, 0.1% aqueous phosphoric acid/acetonitrile gradient, listed as 2)	ED50 (Rhizoctonia solani)	ED50 (Septoria tritici)	pest or weed control at 10 g/ha (Venturia inaequalis) [%]	pest or weed control at 100 g/ha (Botrytis cinerea) [%]	pest or weed control at 10 g/ha (Sphaerotheca fuliginea) [%]
Cc1nc(C(F)(F)F)c(C(=O)Nc2ccccc2-c2ccc(Cl)cc2)s1 [reference compound]				>100>100 ppm	>100>100 ppm	76	76	30
Cc1nc(C(F)(F)F)c(C(=O)Nc2ccccc2-c2ccc(Cl)c(F)c2)s1 [Example 7]	3.61	139 to 141				100	92	95
Cc1nc(C(F)(F)F)c(C(=O)Nc2ccccc2-c2ccc(F)c(F)c2)s1 [Example 4]	3.31	120 to 122				100		90
Cc1nc(C(F)(F)F)c(C(=O)Nc2ccccc2-c2ccc(Cl)c(C(F)(F)F)c2)s1 [Example 11]	4.03			< 0.1 ppm	1.42 ppm	100		100
Cc1nc(C(F)(F)F)c(C(=O)Nc2ccccc2-c2ccc(F)cc2F)s1 [Example 6]	3.21					99		
Cc1nc(C(F)(F)F)c(C(=O)Nc2ccccc2-c2ccc(F)cc2)s1 [Example 3.37, reference compound]				> 100 ppm	84.24 ppm	32	50	20
Cc1nc(C(F)(F)F)c(C(=O)Nc2ccccc2-c2cc(F)cc(F)c2)s1 [Example 5]	3.35	133 to 134				94		
Cc1nc(C(F)(F)F)c(C(=O)Nc2ccccc2-c2ccc(F)c(C(F)(F)F)c2)s1 [Example 9]	3.76							90
Cc1nc(C(F)(F)F)c(C(=O)Nc2ccccc2-c2ccc(F)c(Cl)c2)s1 [Example 1, N-(3′-chloro-4′-fluoro-1,1′-biphenyl-2-yl)-2-methyl-4-(trifluoromethyl)-1,3-thiazol-5-carboxamide]	3.58		3.60			100	82	83
Cc1nc(C(F)(F)F)c(C(=O)Nc2ccccc2-c2ccc(F)c(C)c2)s1 [Example 10]				<0.1 <0.1 ppm	<0.1 <0.1 ppm	100	95	98
Cc1nc(C(F)(F)F)c(C(=O)Nc2ccccc2-c2ccc(C)c(Cl)c2)s1 [Example 18]						100	99	
Cc1nc(C(F)(F)F)c(C(=O)Nc2ccccc2-c2ccc(C)c(C(F)(F)F)c2)s1 [Example 12]	4.03			< 0.1 ppm	3.16 ppm			100

More lines, main results first:

chromatographic logP [1]	melting point [°C]	logP ([1]; pH 2.3, 0.1% aqueous phosphoric acid/acetonitrile gradient, listed as 2)	SMILES	ED50 (Rhizoctonia solani)	ED50 (Septoria tritici)	pest or weed control at 10 g/ha (Venturia inaequalis) [%]	pest or weed control at 100 g/ha (Botrytis cinerea) [%]	pest or weed control at 10 g/ha (Sphaerotheca fuliginea) [%]
2.81			Cc1nc(C(F)(F)F)c(C(=O)Nc2ccccc2I)s1 [Example (IV-1), N-(2-iodophenyl)-2-methyl-4-(trifluoromethyl)-1,3-thiazol-5-carboxamide]					
3.01			Nc1ccccc1-c1ccc(F)c(Cl)c1 [Example (III-1), 3′-chloro-4′-fluoro-1,1′-biphenyl-2-amine]					
4.23			Cc1nc(C(F)(F)F)c(C(=O)Nc2ccccc2-c2ccc(Cl)cc2C)s1 [Example 16]	0.45 ppm	0.89 ppm			
3.63			Cc1nc(C(F)(F)F)c(C(=O)Nc2ccccc2-c2cc(Cl)cc(Cl)c2)s1 [Example 14]	< 0.1 ppm	0.32 ppm	100		
2.79			Cc1nc(C(F)(F)F)c(C(=O)Nc2ccccc2Br)s1 [Example (IV-2), N-(2-bromophenyl)-2-methyl-4-(trifluoromethyl)-1,3-thiazol-5-carboxamide]					
4.08			Cc1nc(C(F)(F)F)c(C(=O)Nc2ccccc2-c2ccc(OC(F)(F)F)c(C(F)(F)F)c2)s1 [Example 13]					85
3.52			Cc1nc(C(F)(F)F)c(C(=O)Nc2ccccc2-c2ccc(Cl)cc2F)s1 [Example 19]			100	99	81
3.86			Cc1nc(C(F)(F)F)c(C(=O)Nc2ccccc2-c2ccc(Cl)cc2Cl)s1 [Example 17]				87	90
